Measurements from patent publication US12576099B2, “Ribose-modified cap analog and use thereof” (Beijing Youcare Kechuang Pharmaceutical Technology Co., Ltd., priority 2024, dated 2026).

Experiments:
BALB/C mice = assay: In vivo imaging of Fluc-mRNA LNP expression in mice
Protocol: The LNP preparation containing 5 μg of cap analog-transcribed Fluc-mRNA was intramuscularly injected into female BALB/C mice aged 4 to 6 weeks and weighing 17 to 19 g. At specific time points after administration (6 hours, 12 hours, 24 hours, 48 hours, 96 hours, and 168 hours), the mice were intraperitoneally injected with fluorescence imaging substrate. The mice were then allowed to move freely for 5 minutes, followed by detection of the total radiation intensity of the protein expressed by LNP-carrying mRNA in the mice using an IVIS Spectrum small-animal in vivo imaging system (corresponding to the amount of protein expression).
In the in vivo imaging experiments in mice, the multiple of the total radiation intensity for each group of mice relative to the m6A group is shown in Table 8 (where the total radiation intensity is represented as the given value×10^8 p/s).

T7 RNA polymerase = T7 RNA polymerase (Escherichia phage T7, UniProt P00573); assay: Capping rate of mRNA transcription initiated by cap analogs (LC-MS); assay type: biochemical; conditions: for Capping rate: LC-MS of mRNA 5′ fragment
Protocol: During the experiment, the volume of materials required for the system was first calculated, and then sample addition was conducted. The system was first added with sterile enzyme-free water, followed by the sequential addition of 10× buffer, NTPs, and cap analogs, mixed well, and gently centrifuged. Nuclease inhibitors, inorganic pyrophosphatase, T7RNA polymerase, and linearized DNA templates were then added thereto. The system was mixed well, gently centrifuged, and incubated at 37° C. After 2 hours of incubation, the system was added with 1 U of DNase I and incubated at 37° C. for another 30 minutes. The mRNA precipitate was then washed with 75% ethanol, and after the ethanol was briefly evaporated to dryness, the mRNA was redissolved in sterile enzyme-free water. • (3) The transcription product was purified, and the in vitro transcription yield of mRNA was recorded. • (4) The obtained mRNA was subjected to an annealing reaction with a probe.
The annealing reaction was performed in a PCR instrument: 95° C. for 5 minutes; 65° C. for 2 minutes; 55° C. for 2 minutes; 40° C. for 2 minutes; 22° C. for 2 minutes. • (5) Magnetic bead pretreatment and probe binding: 100 μL of magnetic beads was placed on a magnetic frame for pretreatment. The magnetic bead solution was added with 120 μL of sample and incubated at room temperature for 30 minutes with slow mixing. • (6) mRNA splicing and obtaining the mRNA 5′ single-strand sequence bound to the probe
The mixture was added with 20 μL of RNase H (5 U/μL) and incubated at 37° C. for 3 hours with mixing every half hour. After incubation, the magnetic beads were washed and then added with 100 μL of 75% methanol heated to 80° C. The mixture was heated to 80° C. on a heating plate, held for 3 minutes, then placed on a magnetic frame to aspirate the supernatant, and dried at room temperature for 45 minutes to a volume of 10 μL using a centrifugal evaporator. The sample was then resuspended in 50 μL of 100 μM EDTA/1% MeOH and ready for LC-MS analysis to determine the capping of RNA in the transcription reaction. Since there is a significant difference in molecular weight between capped and uncapped bases, the capping rate of mRNA transcription initiated by different cap analogs can be determined based on the difference in molecular mass.

[1] = 6 h, 5 μg Fluc-mRNA LNP intramuscular, mice
[2] = 12 h, 5 μg Fluc-mRNA LNP intramuscular, mice
[3] = 24 h, 5 μg Fluc-mRNA LNP intramuscular, mice
[4] = 48 h, 5 μg Fluc-mRNA LNP intramuscular, mice
[5] = 96 h, 5 μg Fluc-mRNA LNP intramuscular, mice
[6] = 168 h, 5 μg Fluc-mRNA LNP intramuscular, mice

T7 RNA polymerase, sequence (P00573 whole entry, the tested form may be a part): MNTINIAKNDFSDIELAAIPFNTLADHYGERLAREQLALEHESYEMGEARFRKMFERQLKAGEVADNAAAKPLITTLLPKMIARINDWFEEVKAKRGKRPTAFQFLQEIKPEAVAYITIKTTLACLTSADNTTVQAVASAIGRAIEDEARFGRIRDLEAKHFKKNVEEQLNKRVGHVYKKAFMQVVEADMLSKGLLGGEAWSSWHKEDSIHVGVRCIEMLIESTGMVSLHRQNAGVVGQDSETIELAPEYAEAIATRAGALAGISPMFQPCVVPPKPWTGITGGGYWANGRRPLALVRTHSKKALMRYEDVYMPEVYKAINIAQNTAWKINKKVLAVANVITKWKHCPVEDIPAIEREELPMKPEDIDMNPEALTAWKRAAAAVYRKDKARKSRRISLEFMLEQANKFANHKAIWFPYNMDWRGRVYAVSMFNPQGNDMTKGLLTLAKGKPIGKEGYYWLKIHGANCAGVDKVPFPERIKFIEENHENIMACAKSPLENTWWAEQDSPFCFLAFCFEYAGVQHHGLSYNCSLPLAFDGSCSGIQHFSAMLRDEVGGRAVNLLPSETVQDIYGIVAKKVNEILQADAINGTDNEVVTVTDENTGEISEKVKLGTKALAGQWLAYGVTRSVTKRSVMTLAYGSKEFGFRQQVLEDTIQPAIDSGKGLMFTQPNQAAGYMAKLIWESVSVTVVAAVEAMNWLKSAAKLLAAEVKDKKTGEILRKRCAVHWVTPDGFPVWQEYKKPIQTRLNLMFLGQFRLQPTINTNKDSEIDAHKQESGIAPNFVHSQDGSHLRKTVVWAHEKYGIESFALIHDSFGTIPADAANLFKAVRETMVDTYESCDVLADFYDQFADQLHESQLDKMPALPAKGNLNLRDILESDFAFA

For `CO[C@@H]1[C@H](OP(=O)(O)OC[C@H]2O[C@@H](n3cnc4c(=O)[nH]c(N)nc43)[C@H](O)[C@@H]2O)[C@@H](COP(=O)(O)OP(=O)(O)OP(=O)(O)OC[C@H]2O[C@@H]([n+]3cn(C)c4c(=O)[nH]c(N)nc43)[C@H](O)[C@@H]2C(C)NC(C)=O)O[C@H]1n1cnc2c(N)ncnc21` (stereo partly shown) [YK-CAP-108], the “Multiple of total radiation intensity relative to m6A” value (BALB/C mice; 6 h) was 2.7, the Total radiation intensity (BALB/C mice; [1]) was 6.42 ×108 p/s and the “Multiple of total radiation intensity relative to m6A” value (BALB/C mice; 12 h) was 2.8. For the same molecule, the Total radiation intensity (BALB/C mice; [2]) was 6.03 ×108 p/s, the “Multiple of total radiation intensity relative to m6A” value (BALB/C mice; 24 h) was 2.6 and the Total radiation intensity (BALB/C mice; [3]) was 1.70 ×108 p/s. For the same molecule, the “Multiple of total radiation intensity relative to m6A” value (BALB/C mice; 48 h) was 2.0, the Total radiation intensity (BALB/C mice; [4]) was 1.04 ×108 p/s and the “Multiple of total radiation intensity relative to m6A” value (BALB/C mice; 96 h) was 1.3. For the same molecule, the Total radiation intensity (BALB/C mice; [5]) was 0.19 ×108 p/s, the Total radiation intensity (BALB/C mice; [6]) was 0.02 ×108 p/s and the Capping rate (T7 RNA polymerase) was 95.8%. For the same molecule, the “Increase relative to 5227 (capping rate)” value (T7 RNA polymerase) was 33.2%.
With `CO[C@@H]1[C@H](OP(=O)(O)OC[C@H]2O[C@@H](n3cnc4c(=O)[nH]c(N)nc43)[C@H](O)[C@@H]2O)[C@@H](COP(=O)(O)OP(=O)(O)OP(=O)(O)OC[C@H]2O[C@@H]([n+]3cn(C)c4c(=O)[nH]c(N)nc43)[C@H](O)[C@@H]2C(C)F)O[C@H]1n1cnc2c(N)ncnc21` (stereo partly shown) [YK-CAP-109] the “Multiple of total radiation intensity relative to m6A” value (BALB/C mice; 6 h) was 2.6, the Total radiation intensity (BALB/C mice; [1]) was 6.04 ×108 p/s and the “Multiple of total radiation intensity relative to m6A” value (BALB/C mice; 12 h) was 2.8. The Total radiation intensity (BALB/C mice; [2]) was 5.84 ×108 p/s, the “Multiple of total radiation intensity relative to m6A” value (BALB/C mice; 24 h) was 2.8 and the Total radiation intensity (BALB/C mice; [3]) was 1.85 ×108 p/s. For the same molecule, the “Multiple of total radiation intensity relative to m6A” value (BALB/C mice; 48 h) was 1.0, the Total radiation intensity (BALB/C mice; [4]) was 0.54 ×108 p/s and the “Multiple of total radiation intensity relative to m6A” value (BALB/C mice; 96 h) was 2.7. For the same molecule, the Total radiation intensity (BALB/C mice; [5]) was 0.14 ×108 p/s, the Total radiation intensity (BALB/C mice; [6]) was 0.03 ×108 p/s and the Capping rate (T7 RNA polymerase) was 95.2%. For the same molecule, the “Increase relative to 5227 (capping rate)” value (T7 RNA polymerase) was 32.4%.
In the case of `CO[C@@H]1[C@H](OP(=O)(O)OC[C@H]2O[C@@H](n3cnc4c(=O)[nH]c(N)nc43)[C@H](O)[C@@H]2O)[C@@H](COP(=O)(O)OP(=O)(O)OP(=O)(O)OC[C@H]2O[C@@H]([n+]3cn(C)c4c(=O)[nH]c(N)nc43)[C@H](O)[C@@H]2C(F)F)O[C@H]1n1cnc2c(N)ncnc21` [YK-CAP-110], the “Multiple of total radiation intensity relative to m6A” value (BALB/C mice; 6 h) is reported as 4.1, the Total radiation intensity (BALB/C mice; [1]) is reported as 9.52 ×108 p/s and the “Multiple of total radiation intensity relative to m6A” value (BALB/C mice; 12 h) is reported as 5.0. The Total radiation intensity (BALB/C mice; [2]) was 10.55 ×108 p/s, the “Multiple of total radiation intensity relative to m6A” value (BALB/C mice; 24 h) was 4.6 and the Total radiation intensity (BALB/C mice; [3]) was 3.04 ×108 p/s. The “Multiple of total radiation intensity relative to m6A” value (BALB/C mice; 48 h) was 4.4, the Total radiation intensity (BALB/C mice; [4]) was 2.30 ×108 p/s and the “Multiple of total radiation intensity relative to m6A” value (BALB/C mice; 96 h) was 1.0. The Total radiation intensity (BALB/C mice; [5]) was 0.27 ×108 p/s, the Total radiation intensity (BALB/C mice; [6]) was 0.04 ×108 p/s and the Total radiation intensity (BALB/C mice; at 12 hours) was 10.55 ×10^8 p/s. For the same molecule, the “Total radiation intensity, times that of N-7113” value (BALB/C mice; at 12 hours) was 2.4 times, the “Total radiation intensity, times that of YK-CAP-101” value (BALB/C mice; at 12 hours) was 11.0 times and the Total radiation intensity (BALB/C mice; at 48 hours) was 2.30 ×10^8 p/s. For the same molecule, the “Total radiation intensity, times that of N-7113” value (BALB/C mice; at 48 hours) was 4.7 times, the “Total radiation intensity, times that of YK-CAP-101” value (BALB/C mice; at 48 hours) was 12.1 times and the Capping rate (T7 RNA polymerase) was 97.4%. The “Increase relative to 5227 (capping rate)” value (T7 RNA polymerase) was 35.5%.
For `CCN(CC)C(=O)[C@H]1[C@@H](O)[C@H]([n+]2cn(C)c3c(=O)[nH]c(N)nc32)O[C@@H]1COP(=O)(O)OP(=O)(O)OP(=O)(O)OC[C@H]1O[C@@H](n2cnc3c(N)ncnc32)[C@H](OC)[C@@H]1OP(=O)(O)OC[C@H]1O[C@@H](n2cnc3c(=O)[nH]c(N)nc32)[C@H](O)[C@@H]1O` [YK-CAP-111], the “Multiple of total radiation intensity relative to m6A” value (BALB/C mice; 6 h) was 3.7, the Total radiation intensity (BALB/C mice; [1]) was 8.61 ×108 p/s and the “Multiple of total radiation intensity relative to m6A” value (BALB/C mice; 12 h) was 4.4. The Total radiation intensity (BALB/C mice; [2]) was 9.34 ×108 p/s, the “Multiple of total radiation intensity relative to m6A” value (BALB/C mice; 24 h) was 4.2 and the Total radiation intensity (BALB/C mice; [3]) was 2.75 ×108 p/s. For the same molecule, the “Multiple of total radiation intensity relative to m6A” value (BALB/C mice; 48 h) was 3.8, the Total radiation intensity (BALB/C mice; [4]) was 1.95 ×108 p/s and the “Multiple of total radiation intensity relative to m6A” value (BALB/C mice; 96 h) was 1.1. The Total radiation intensity (BALB/C mice; [5]) was 0.27 ×108 p/s, the Total radiation intensity (BALB/C mice; [6]) was 0.03 ×108 p/s and the Total radiation intensity (BALB/C mice; at 12 hours) was 9.34 ×10^8 p/s. For the same molecule, the “Total radiation intensity, times that of N-7113” value (BALB/C mice; at 12 hours) was 2.2 times, the “Total radiation intensity, times that of YK-CAP-101” value (BALB/C mice; at 12 hours) was 9.7 times and the Total radiation intensity (BALB/C mice; at 48 hours) was 1.95 ×10^8 p/s. The “Total radiation intensity, times that of N-7113” value (BALB/C mice; at 48 hours) was 4.0 times, the “Total radiation intensity, times that of YK-CAP-101” value (BALB/C mice; at 48 hours) was 10.3 times and the Capping rate (T7 RNA polymerase) was 98.1%. For the same molecule, the “Increase relative to 5227 (capping rate)” value (T7 RNA polymerase) was 36.4%, the “Capping rate, times that of YK-CAP-101” value (T7 RNA polymerase; relative to YK-CAP-101) was 2.3 times and the “Capping rate, times that of YK-CAP-102” value (T7 RNA polymerase; relative to YK-CAP-102) was 3.2 times. The “Capping rate, times that of YK-CAP-103” value (T7 RNA polymerase; relative to YK-CAP-103) was 1.4 times, the “Capping rate, times that of YK-CAP-104” value (T7 RNA polymerase; relative to YK-CAP-104) was 1.3 times and the “Capping rate, times that of YK-CAP-105” value (T7 RNA polymerase; relative to YK-CAP-105) was 1.4 times. For the same molecule, the “Capping rate higher than that of compound 14” value (T7 RNA polymerase; relative to compound 14) was 25.3%.
